Reference: patent publication US12484608B2, “Nutritional composition and infant formula for promoting de novo myelination” (SOCIETE DES PRODUITS NESTLE S.A., priority 2015, dated 2025)

Assays:
[1] = tested on: brain myelination; assay: Cross-sectional correlation of infant formula nutrient content with brain myelin content (mcDESPOT MRI, myelin water fraction); type: in vivo, human; conditions: formula-fed children up to 5 years
Source text: MRI (Magnetic Resonance Imaging): MRI brain scans of infants and children between 0 and 5 years were acquired using a white matter imaging technique. This technique provides a quantitative measure, the Myelin Water Fraction (MWF), which is a surrogate marker of myelin content in the brain. When mapped as a function of time across early childhood, myelination trajectories can be generated.
Each infant was scanned using the mcDESPOT (multicomponent Driven Equilibrium Single Pulse Observation of T1 and T2) white matter imaging technique Deoni et al. (Magn. Reson. Med. 2008, 60:1372-1387), which provides a quantitative measure of the myelin water fraction (MWF)—a measure of myelin content—at each point throughout the brain. All infants were scanned during natural (i.e. non-sedated) sleep using acoustically-muffled mcDESPOT imaging protocols. Total imaging times ranged from 19 minutes for the youngest toddlers to 24 minutes for the older 4 year-old children.
Following image alignment, non-brain signal removal, and correction for main and transmit magnetic field (B0 and B1) inhomogeneities, a three-pool signal model (comprising the myelin-associated water; intra-extra axonal water; and a non-exchanging free-water pool) was fit to the mcDESPOT data to derive voxel-wise MWF maps.
Each child's map was then non-linearly aligned to a study specific template. White matter masks, corresponding to 5 bilateral regions (frontal, temporal, occipital, parietal, and cerebellar WM) as well as the body, genu, and splenium of the corpus callosum were created from common databases, registered to the common template, and superimposed onto each child's MWF map. Mean values for each region were then determined for each child and used for subsequent developmental analysis and trajectory modeling.
From the cohort described above, children up to 5 years of age that were fed different infant formulas during infancy were included in a large correlation analysis to examine the relationship between formula nutrient composition and brain myelination. The 5 most frequently used formulas in that cohort were analyzed for their nutritional composition. A single general linear model (GLM) was constructed that modeled all quantified nutrients and child age.
Spearman rank correlations were then calculated between the nutrient content and myelin content value (adjusted for child age) at each image voxel, or point within the brain. Significance was defined as p<0.05 corrected for type 1 error using a cluster based correction approach. An association or trend was defined as p<0.15. […] To reduce the number of nutritional components in the model, we examined the inter-nutritional correlation. Using a conservative threshold of 0.9, we excluded nutritional components that were highly correlated with each other across the various formulas.

[2] = tested on: neural progenitor cell (NPCs); assay: Neurosphere counts in 96-well plates; type: cell-based, mouse; conditions: control 103
Method: Generation of neural progenitor cell (NPCs) libraries:
dissociation of E14 mouse neocortex
Plating Cells in 96-Well Plates for Neurosphere Counts and Diameters Only
3-4 mLs of cells were taken out of the tilted plate and add to a 15 ml conical. Some of the remaining media was used to rinse down the plate. All remaining media was drawn up and put into a 15 ml conical tube, and Spun at 130G for 5 min. All media was removed. The cells were gently resuspended in 5 mls of warm PBS, spun again. PBS was then removed and the cells were then gently resuspended in 500 μl of Accutase(Corning™ Accutase™ Cell Detachment Solution, #25058CI). The cells were then Pipetted gently with a 1000p tip to break up pellet, and then they were placed in a shaking water bath for 5-10 minutes, after which time they were swirled by hand frequently.
1 ml was taken off to count cells. The cells were spun again. Media was removed from the cell pellet. 1 mls of prepared media (no GF) was added. The cells were pipetted with a 1000 ul pipette. Cell dilutions (24,000
cells/well) in 250 μL of appropriate media were made. Cells were swirled daily and grown for 2 days.
1. The cells were fixed in the hood. For fixation and subsequent immunohistochemical analysis 100 ul of medium was removed and 100 ul 4% PFA in 1×PBS was added to fix the cells whilst counting the neurospheres by hand, then the cells were washed twice with 1×PBS for 5 min, and left in 1×PBS, wrapped in foil and left overnight at 4° C., or Dapi staining was carried out. 100 uL of PBS was removed and 100 uL
in AB staining solution for five min. Imaging was carried out using a GE Cytell imager or LSM 710, Zeiss confocal microscope and the diameters of neurospheres with ImageJ software (National Institutes of Health) was analysed.

[3] = tested on: neural progenitor cell (NPCs); assay: Monolayer culture NPC proliferation assay; type: cell-based, mouse; conditions: control 262
Method: Monolayer Culture NPC Proliferation Assay (Incorporation of EdU—S Phase Marker
After 24 h, it was ensured that cells had attached to the plate then the medium was carefully removed. 500 μL of compound media plus GF.was added. The cells were cultured for 3 days in appropriate media.
EDU incorporation was measured using Click-iT® EdU Alexa Fluor® 555 Imaging Kit
At the end of day 3 EdU was added to each well at 10 μM for 30 minutes prior to fixation.
For fixation and subsequent immunohistochemical analysis, the medium was removed, the cells were rinsed once with 1×PBS for 5 min, and fixed with 4% PFA in 1×PBS for 15 min at 4° C., then the cells were washed twice with 1×PBS for 5 min, left in 1×PBS, wrapped in foil and leave overnight at 4° C., or staining was proceeded with.
serum, 1×PBS, and 0.1% triton X) added to cover the bottom, the block was kept at room temp for 1 hour. The cells were stained for EDU. The cells were Incubated for 30 min at room temp, in the dark. The cells were washed with 1×PBS and stained with Dapi 1:5000 ul for 15 min. The cells were washed once with 1×PBS, then left in PBS at 4° C., or Imaged immediately using a GE Cytell imager (cell viability

[4] = high dose sphingomyelin (Dose 3: 1 μm)
[5] = low dose sphingomyelin (Dose 1: 10 nM)
[6] = med dose sphingomyelin (Dose 2: 100 nM)

Compound | association with myelination (myelin water fraction) over time in the brain [1] | also measured
CCCCC/C=C\C/C=C\C/C=C\C/C=C\CCCC(=O)O [AA, arachidonic acid] | an association with myelination (myelin water fraction) was observed over time in the brain | 
[Ca+2] [calcium] | an association with myelination (myelin water fraction) was observed over time in the brain | 
[Mg+2] [magnesium] | an association with myelination (myelin water fraction) was observed over time in the brain | 
[P] [phosphorus] | an association with myelination (myelin water fraction) was observed over time in the brain | 
[Zn] [zinc] | an association with myelination (myelin water fraction) was observed over time in the brain | 
iron | an association with myelination (myelin water fraction) was observed over time in the brain | 
phosphatidylcholine | an association with myelination (myelin water fraction) was observed over time in the brain | 
phosphatidylinositol | an association with myelination (myelin water fraction) was observed over time in the brain | 
sphingomyelin | an association with myelination (myelin water fraction) was observed over time in the brain | number of neurospheres, Average (Mean) [2, 4]: 219; number of neurospheres, Average (Mean) [2, 5]: 94; number of neurospheres, Average (Mean) [2, 6]: 121; neuronal proliferation, DAPI [3, 4]: 305; neuronal proliferation, DAPI [3, 5]: 280; neuronal proliferation, DAPI [3, 6]: 314
vitamin B12 | an association with myelination (myelin water fraction) was observed over time in the brain | 
